The source of these data is publication PMC6273868, “High-Resolution α-Glucosidase Inhibition Profiling Combined with HPLC-HRMS-SPE-NMR for Identification of Antidiabetic Compounds in Eremanthus crotonoides (Asteraceae)” (Molecules, 2016).

The test system of assay [1] is α-glucosidase. Nature of the assay: High-resolution α-glucosidase inhibition profiling (biochromatogram) of HPLC microfractions. The conditions noted are these: for α-glucosidase inhibitory activity as seen in the biochromatogram of E. crotonoides extract (in words): crude defatted ethyl acetate extract, C18 column; for α-glucosidase inhibitory activity of peak in biochromatogram: microfractionation of fraction Fr.2 on PFP column; for α-glucosidase inhibitory activity of peak in biochromatogram / α-glucosidase inhibitory activity, direct readout from the biochromatogram: relative inhibition, quantity unknown; for α-glucosidase inhibitory activity, direct readout from the biochromatogram: biochromatogram of crude defatted extract. It is filed as biochemical, Saccharomyces cerevisiae. More on the design: α-glucosidase inhibitory activity of peak in biochromatogram / α-glucosidase inhibitory activity, direct readout from the biochromatogram: concentration or dose not given beside the values. As for the experimental part: Thus, 0.4 mg of the extract of E. crotonoides was subjected to analytical-scale reversed-phase HPLC, and the eluate in the retention time range from 3.0 to 78.0 min was fractionated into four 96-well microplates, yielding a resolution of 4.7 data points/min (the first column of each microplate was reserved for blanks and controls). This was followed by evaporation of the HPLC eluate from all wells, reconstitution in buffer containing 10% DMSO, and assessment of the α-glucosidase inhibitory activity of all wells (final concentration of DMSO during assay = 5%). The inhibitory activities (calculated as percentage inhibition) were plotted against the retention time from the microfractionation to give the high-resolution α-glucosidase inhibition profile (biochromatogram) shown in Figure 1. The HPLC chromatogram at 254 nm is shown with the blue line (top) and the high-resolution α-glucosidase inhibition profile shown with the red line at the bottom. The high resolution of the biochromatogram allows direct correlation of HPLC peaks and peaks in the biochromatogram—thereby pinpointing peaks corresponding to compounds with α-glucosidase inhibitory activity.
(§1) Methanol and ethyl acetate used for extraction were purchased from Tedia (Fairfield, OH, USA). Formic acid was obtained from Merck (Darmstadt, Germany) and water was prepared by a deionization and 0.22-µm membrane filtration system (Milipore, Billerica, MA, USA).
Microfractionation was performed with an Agilent 1200 series instrument (Santa Clara, CA, USA) consisting of a G1316A quartenary pump, a G1322A degasser, a G1316A thermostatted column compartment, a G1315C photodiode-array detector, a G1364C fraction collector, and a G1367C high-performance auto sampler, controlled by Agilent ChemStation ver. B.03.02 software. The columns used were a Phenomenex C18(2) Luna (150 mm × 4.6 mm, 3 μm particle size, 100 Å pore size) and a Phenomenex PFP Kinetex (150 mm × 4.6 mm, 2.6 μm particle size, 100 Å pore size). For fractionation of the crude defatted ethyl acetate extract of E. crotonoides (injection: 4 μL; concentration: 100 mg/mL) the temperature was maintained at 40 °C and the flow rate at 0.5 mL/min. The solvents were a binary gradient mixture of water–acetonitrile (95:5 v/v) as eluent A and acetonitrile–water (95:5 v/v) as eluent B, both acidified with 0.1% formic acid. The following elution profile was used: 0 min, 10% B; 35 min, 26% B; 50 min, 35% B; 60 min, 40% B; 90 min, 100% B, and the eluate from 3 to 78 min was fractionated into four 96-well microplates, leading to a resolution of 4.7 data points per min. For fractionation of Fr.2 (injection: 2 μL; concentration: 33 mg/mL) the same conditions as described above were used, but with methanol and the PFP column instead of acetonitrile and the C18 column. The eluate from 8 to 30 min was fractionated into one 96-well microplate (resolution: 4.0 data points per min) using the following gradient: 0 min, 50% B; 3 min, 50% B; 34 min, 59% B; 35 min 100% B; 38 min, 100% B. The collected fractions were evaporated to dryness using a Savant SPD121P speed vacuum concentrator coupled with a RVT400 refrigerated vapor trap and an OFP-400 oil free pump (Holbrook, NY, USA). The α-glucosidase inhibitiory activity of the fractions was determined according to the previously described procedure. Briefly, the content of each well was dissolved in 100 μL of 0.1 M phosphate buffer containing 10% of DMSO and added 80 μL of the α-glucosidase solution. After incubation at 28 °C for 10 min the reaction was initiated by addition of 20 μL of PNPG (10 mM in phosphate buffer) (final volume = 200 μL and final DMSO = 5%). The cleavage product of PNPG was monitored at 405 nm for 35 min using a Multiskan FC microplate photometer (Thermo Scientific, Waltham, MA, USA) and the percentage enzyme inhibition was calculated. […]

Assay [2] concerns the target α-glucosidase. More on the design: method as in PMID 25172103. As to conditions: known as a weak inhibitor; cited from earlier work.
A further assay deals with yeast α-glucosidase. Nature of the assay: α-glucosidase inhibition assay, dilution series for IC50 determination (PNPG substrate). Format: biochemical, Saccharomyces cerevisiae. The conditions noted are these: for IC50: isolated compounds, means ± SD of triplicate experiments. The procedure: as §1
Microfractionation was performed with an Agilent 1200 series instrument (Santa Clara, CA, USA) consisting of a G1316A quartenary pump, a G1322A degasser, a G1316A thermostatted column compartment, a G1315C photodiode-array detector, a G1364C fraction collector, and a G1367C high-performance auto sampler, controlled by Agilent ChemStation ver. B.03.02 software. The columns used were a Phenomenex C18(2) Luna (150 mm × 4.6 mm, 3 μm particle size, 100 Å pore size) and a Phenomenex PFP Kinetex (150 mm × 4.6 mm, 2.6 μm particle size, 100 Å pore size). For fractionation of the crude defatted ethyl acetate extract of E. crotonoides (injection: 4 μL; concentration: 100 mg/mL) the temperature was maintained at 40 °C and the flow rate at 0.5 mL/min. The solvents were a binary gradient mixture of water–acetonitrile (95:5 v/v) as eluent A and acetonitrile–water (95:5 v/v) as eluent B, both acidified with 0.1% formic acid. The following elution profile was used: 0 min, 10% B; 35 min, 26% B; 50 min, 35% B; 60 min, 40% B; 90 min, 100% B, and the eluate from 3 to 78 min was fractionated into four 96-well microplates, leading to a resolution of 4.7 data points per min. For fractionation of Fr.2 (injection: 2 μL; concentration: 33 mg/mL) the same conditions as described above were used, but with methanol and the PFP column instead of acetonitrile and the C18 column. The eluate from 8 to 30 min was fractionated into one 96-well microplate (resolution: 4.0 data points per min) using the following gradient: 0 min, 50% B; 3 min, 50% B; 34 min, 59% B; 35 min 100% B; 38 min, 100% B. The collected fractions were evaporated to dryness using a Savant SPD121P speed vacuum concentrator coupled with a RVT400 refrigerated vapor trap and an OFP-400 oil free pump (Holbrook, NY, USA). The α-glucosidase inhibitiory activity of the fractions was determined according to the previously described procedure. Briefly, the content of each well was dissolved in 100 μL of 0.1 M phosphate buffer containing 10% of DMSO and added 80 μL of the α-glucosidase solution. After incubation at 28 °C for 10 min the reaction was initiated by addition of 20 μL of PNPG (10 mM in phosphate buffer) (final volume = 200 μL and final DMSO = 5%). The cleavage product of PNPG was monitored at 405 nm for 35 min using a Multiskan FC microplate photometer (Thermo Scientific, Waltham, MA, USA) and the percentage enzyme inhibition was calculated. The α-glucosidase inhibition of each well was plotted at their respective retention times underneath the HPLC chromatogram to obtain a high-resolution biochromatogram.
Preparative-scale fractionation was performed using an Agilent 1100 series instrument equipped with a multiple wavelength detector, an autosampler and two preparative-scale solvent delivery pumps. The column used was a Phenomenex C18(2) Luna (250 mm × 21.2 mm, 5 μm particle size, 100 Å pore size) and the gradient method was as follows: 0 min, 20% B; 27 min, 35% B; 37 min, 40% B; 40 min, 100% B; 46 min, 100% B; 47 min, 20% B; 52 min, 20% B using a binary mixture of water–acetonitrile (95:5 v/v) as eluent A and acetonitrile–water (95:5 v/v) as eluent B, both acidified with 0.1% formic acid.

What is called IC50 is the concentration at which inhibition is half-maximal. Usually Inhibition stands for the relative decrease from the control value, in per cent.

“Also recorded” adds a separate entry of the source.

Take `O=C(/C=C/c1ccc(O)c(O)c1)O[C@H]1[C@H](O)C[C@](O)(C(=O)O)C[C@H]1OC(=O)/C=C/c1ccc(O)c(O)c1` [Compound 8, 3,4-di-O-caffeoylquinic acid]: the “α-glucosidase inhibitory activity as seen in the biochromatogram of E. crotonoides extract (in words)” value (shortened to “α-glucosidase inhibitory activity … (in words)”) with α-glucosidase [1] was “no or very low”.
The same measure, in the same setting: for `O=C(/C=C/c1ccc(O)c(O)c1)O[C@@H]1C[C@](O)(C(=O)O)C[C@@H](OC(=O)/C=C/c2ccc(O)c(O)c2)[C@H]1O` [Compound 9, 3,5-di-O-caffeoylquinic acid] the value was “no or very low”.
For the compound `O=C(/C=C/c1ccc(O)c(O)c1)O[C@@H]1[C@H](O)C[C@@](O)(C(=O)O)C[C@H]1OC(=O)/C=C/c1ccc(O)c(O)c1` [Compound 11, 4,5-di-O-caffeoylquinic acid], the “α-glucosidase inhibitory activity … (in words)” value in the assay with α-glucosidase [1] is recorded as “no or very low; also recorded: minor”. Also, the IC50 at α-glucosidase [2] is greater than 100 µM.
As for `O=C(/C=C/c1ccc(O)c(O)c1)OC[C@H]1O[C@@H](Oc2c(-c3ccc(O)c(O)c3)oc3cc(O)cc(O)c3c2=O)[C@H](O)[C@@H](O)[C@@H]1O` [Compound 12, quercetin-3-O-(6″-(E)-O-caffeoyl)-β-D-glucoside], the “α-glucosidase inhibitory activity … (in words)” value in the assay with α-glucosidase [1] was “minor”.
Regarding `O=c1c(O)c(-c2ccc(O)c(O)c2)oc2cc(O)cc(O)c12` [Compound 16, quercetin], in the assay on α-glucosidase [1], the “α-glucosidase inhibitory activity of peak in biochromatogram” value turned out to be 82%.
For the compound `O=C(/C=C/c1ccc(O)cc1)OC[C@H]1O[C@@H](Oc2c(-c3ccc(O)cc3)oc3cc(O)cc(O)c3c2=O)[C@H](O)[C@@H](O)[C@@H]1O` [Compound 17, trans-tiliroside], in the assay with yeast α-glucosidase (210 μM), the “Inhibition at 210 μM” value is given as 4.5%. The IC50 at yeast α-glucosidase is greater than 210 µM. Further, the “α-glucosidase inhibitory activity of peak in biochromatogram” value in the assay with α-glucosidase [1] is 23%.
In the case of `O=c1cc(-c2ccc(O)c(O)c2)oc2cc(O)cc(O)c12` [Compound 19, luteolin], the IC50 against yeast α-glucosidase came out at 59.6 ± 1.32 µM. Also, in the assay with α-glucosidase [1], the “α-glucosidase inhibitory activity of peak in biochromatogram” value is recorded as 32%.
The like results for `COc1c(-c2ccc(O)c(O)c2)oc2cc(O)cc(O)c2c1=O` [Compound 20, quercetin 3-methyl ether] were, in that order, 20.4 ± 1.3 µM and 70%.
With `CCCCOC(=O)[C@]1(O)C[C@@H](OC(=O)/C=C/c2ccc(O)c(O)c2)[C@@H](O)[C@H](OC(=O)/C=C/c2ccc(O)c(O)c2)C1` [Compound 26, 3,5-di-O-caffeoylquinic acid n-butyl ester], inhibition at yeast α-glucosidase was half-maximal at 5.93 ± 0.12 µM (IC50). For the same compound, the “α-glucosidase inhibitory activity, direct readout from the biochromatogram” value in the assay on α-glucosidase [1] was found to be 92%.
The like results for `CCCCOC(=O)[C@]1(O)C[C@@H](O)[C@@H](OC(=O)/C=C/c2ccc(O)c(O)c2)[C@H](OC(=O)/C=C/c2ccc(O)c(O)c2)C1` [Compound 29, 4,5-di-O-caffeoylquinic acid n-butyl ester] were, in that order, 5.2 ± 0.3 µM and 57%.
